Data as given in patent publication EP4818168A1, “FUSED RING COMPOUND, PHARMACEUTICAL COMPOSITION THEREOF AND USE THEREOF” (priority 2023, dated 2025).

Columns and labels:
[1] = test system: HCC1806 cells; experiment: CTG assay of compound inhibition on cell viability (HCC1806 cells); assay type: cell-based; conditions: Homo sapiens, HCC1806, 144 h, read-out: IC50 in HCC1806 Cells
Procedure: CellTiter-Glo (CTG) is a rapid cell viability test method based on ATP detection. […] Adenosine triphosphate (ATP) participates in various enzymatic reactions in organisms and is an indicator of living cell metabolism. Its content directly reflects the number of living cells and cell status. During the experiment, equal volume of CTG reagent is added to the cultured cells to measure the luminescence value. The chemiluminescent signal value is proportional to the amount of ATP, thus reflecting the number of viable cells. Therefore, cell viability can be obtained by detecting the ATP content. Compounds that affect cell viability will inhibit cell viability in a concentration-dependent manner, allowing a curve to be fitted to obtain the IC50 value.
The experimental procedure is as follows: • 11. Place the cell suspension in a 15 mL centrifuge tube, centrifuge at 1000 rpm for 5 min at room temperature, discard the supernatant, and collect the cell pellet. • 12. Resuspend the cell pellet with preheated complete cell culture medium (RPMI1640+10%FBS+1%PS), and use a Countess® automated cell counter to detect cell viability and density. The cell viability must be above 90%. • 13. […] Transfer the compound solution to a 96-well plate seeded with cells (final concentration of DMSO 0.1%), and place in a cell incubator at 37°C, 5% CO2 for 6 days. • 15. […] Protect from light during the whole process. Perform optical signal readings using a SpectraMax i3x reader. • 16. Data analysis: Remaining activity (%) = 100% * (1 - ((LumDMSO - Lummedium) - Lumsample) / (LumDMSO - LumPBS/medium)). Use GraphPad Prism 9.0 software to draw an S-shaped dose-survival rate curve and calculate the IC50 value using a nonlinear regression model.

[2] = molecular target: T1, AURKA (Homo sapiens, UniProt O14965); assay type: cell-based; conditions: Jurkat cells, 24 h, Table 1
T1 construct: endogenous in cells; host or cells: Jurkat cells
T1 sequence (O14965 1-403): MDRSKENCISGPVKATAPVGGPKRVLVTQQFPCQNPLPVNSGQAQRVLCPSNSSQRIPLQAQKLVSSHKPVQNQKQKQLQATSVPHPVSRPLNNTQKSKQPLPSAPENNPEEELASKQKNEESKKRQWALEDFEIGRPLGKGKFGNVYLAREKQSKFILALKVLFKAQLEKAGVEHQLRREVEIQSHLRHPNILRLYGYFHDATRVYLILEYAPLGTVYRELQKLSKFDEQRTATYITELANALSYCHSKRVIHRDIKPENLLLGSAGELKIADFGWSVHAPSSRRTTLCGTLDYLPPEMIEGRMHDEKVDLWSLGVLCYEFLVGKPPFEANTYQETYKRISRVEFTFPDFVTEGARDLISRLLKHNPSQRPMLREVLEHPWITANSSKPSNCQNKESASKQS
Outline: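 Jurkat cells seeded at 1×10^6 cells/500 µL and treated with compound; lysates run on SDS-PAGE, blotted to nitrocellulose and probed overnight at 4°C for AURKA. Chemiluminescent or fluorescent band intensity fitted to a curve to give DC50 for protein degradation.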

COc1cc(Nc2ncc3c(n2)-c2ccc(Cl)cc2C(c2c(F)cccc2OC)=NC3)ccc1C(=O)NC1CCN(Cc2ccc(N3CCC(=O)NC3=O)cc2)CC1 [Compound A28]
IC50 [1]: < 1000 nM | Percentage of AURKA Degradation Induced by 100 nM Compound in Jurkat Cells [2]: + (Degradation ≤ 30%) | Percentage of AURKA Degradation Induced by 1 µM Compound in Jurkat Cells [2]: + (Degradation ≤ 30%)

COc1cc(Nc2ncc3c(n2)-c2ccc(Cl)cc2C(c2c(F)cccc2OC)=NC3)ccc1C(=O)NCCN1CCN(c2ccc(N3CCC(=O)NC3=O)cn2)CC1 [Compound A29]
IC50 [1]: < 1000 nM | Percentage of AURKA Degradation Induced by 100 nM Compound in Jurkat Cells [2]: +++ (Degradation > 70%) | Percentage of AURKA Degradation Induced by 1 µM Compound in Jurkat Cells [2]: +++ (Degradation > 70%)

COc1cc(Nc2ncc3c(n2)-c2ccc(Cl)cc2C(c2c(F)cccc2OC)=NC3)ccc1C(=O)NCCN1CCN(c2ccc(N3CCC(=O)NC3=O)nc2)CC1 [Compound A30]
IC50 [1]: < 1000 nM | Percentage of AURKA Degradation Induced by 100 nM Compound in Jurkat Cells [2]: ++ (30% < Degradation ≤ 70%) | Percentage of AURKA Degradation Induced by 1 µM Compound in Jurkat Cells [2]: ++ (30% < Degradation ≤ 70%)

COc1cc(Nc2ncc3c(n2)-c2ccc(Cl)cc2C(c2c(F)cccc2OC)=NC3)ccc1C(=O)NCCOCCNc1ccn2c(N3CCC(=O)NC3=O)cnc2c1 [Compound A32]
IC50 [1]: > 10000 nM | Percentage of AURKA Degradation Induced by 100 nM Compound in Jurkat Cells [2]: + (Degradation ≤ 30%) | Percentage of AURKA Degradation Induced by 1 µM Compound in Jurkat Cells [2]: + (Degradation ≤ 30%)

COc1cc(Nc2ncc3c(n2)-c2ccc(Cl)cc2C(c2c(F)cccc2OC)=NC3)ccc1C(=O)N1CC2(CN(Cc3cccc4c3C(=O)N(C3CCC(=O)NC3=O)C4=O)C2)C1 (stereo not drawn) [Compound A33]
IC50 [1]: < 1000 nM | Percentage of AURKA Degradation Induced by 100 nM Compound in Jurkat Cells [2]: ++ (30% < Degradation ≤ 70%) | Percentage of AURKA Degradation Induced by 1 µM Compound in Jurkat Cells [2]: ++ (30% < Degradation ≤ 70%)

COc1cc(Nc2ncc3c(n2)-c2ccc(Cl)cc2C(c2c(F)cccc2OC)=NC3)ccc1C(=O)N1CC(N(C)CC#Cc2cccc3c2CN(C2CCC(=O)NC2=O)C3=O)C1 (stereo not drawn) [Compound A34]
IC50 [1]: < 1000 nM | Percentage of AURKA Degradation Induced by 100 nM Compound in Jurkat Cells [2]: ++ (30% < Degradation ≤ 70%) | Percentage of AURKA Degradation Induced by 1 µM Compound in Jurkat Cells [2]: ++ (30% < Degradation ≤ 70%)

COc1cc(Nc2ncc3c(n2)-c2ccc(Cl)cc2C(c2c(F)cccc2OC)=NC3)ccc1C(=O)N1CCC2(CCN(c3ccc(N4CCC(=O)NC4=O)cc3)CC2)C1 [Compound A36]
IC50 [1]: < 1000 nM | Percentage of AURKA Degradation Induced by 100 nM Compound in Jurkat Cells [2]: + (Degradation ≤ 30%) | Percentage of AURKA Degradation Induced by 1 µM Compound in Jurkat Cells [2]: + (Degradation ≤ 30%)

O=C1CCN(c2ccc(N3CCC4(CC3)CC(NC(=O)c3ccc(Nc5ncc6c(n5)-c5ccc(Cl)cc5C(c5c(F)cccc5F)=NC6)cc3)C4)cc2)C(=O)N1 [Compound A37]
IC50 [1]: < 1000 nM | Percentage of AURKA Degradation Induced by 100 nM Compound in Jurkat Cells [2]: +++ (Degradation > 70%) | Percentage of AURKA Degradation Induced by 1 µM Compound in Jurkat Cells [2]: +++ (Degradation > 70%)

COc1cc(Nc2ncc3c(n2)-c2ccc(Cl)cc2C(c2c(F)cccc2OC)=NC3)ccc1C(=O)NC1CC2(CCN(c3ccc(N4CCC(=O)NC4=O)cc3)CC2)C1 [Compound A38]
IC50 [1]: < 1000 nM | Percentage of AURKA Degradation Induced by 100 nM Compound in Jurkat Cells [2]: +++ (Degradation > 70%) | Percentage of AURKA Degradation Induced by 1 µM Compound in Jurkat Cells [2]: +++ (Degradation > 70%)

COc1cc(Nc2ncc3c(n2)-c2ccc(Cl)cc2C(c2c(F)cccc2OC)=NC3)ccc1C(=O)N(C)C1CC2(CCN(c3ccc(N4CCC(=O)NC4=O)cc3)CC2)C1 [Compound A40]
IC50 [1]: < 1000 nM | Percentage of AURKA Degradation Induced by 100 nM Compound in Jurkat Cells [2]: ++ (30% < Degradation ≤ 70%) | Percentage of AURKA Degradation Induced by 1 µM Compound in Jurkat Cells [2]: + (Degradation ≤ 30%)

COc1cc(Nc2ncc3c(n2)-c2ccc(Cl)cc2C(c2c(F)cccc2OC)=NC3)ccc1C(=O)N1CC2(CCN(c3ccc(N4CCC(=O)NC4=O)cc3)CC2)C1 [Compound A42]
IC50 [1]: > 10000 nM | Percentage of AURKA Degradation Induced by 100 nM Compound in Jurkat Cells [2]: + (Degradation ≤ 30%) | Percentage of AURKA Degradation Induced by 1 µM Compound in Jurkat Cells [2]: + (Degradation ≤ 30%)
